In PubChem BioAssay (NCI):
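Test compounds were applied to cells in 96-well plates for 48 hours at 5 doses. Definition used: TGI = concentration required for complete inhibition of growth.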

What follows are compounds tested on SK-MEL-2 melanoma (assay: NCI-60 cell line screen, 48 h).

SMILES	TGI
CCOc1nnnc2nc[nH]c12	> 100 µM
CN(C)CCSc1cc(-c2ccccc2)c2ccccc2n1	28.6 µM
CN1C(=O)C2CCCC(=O)N2c2cccnc21 (stereo not given)	> 100 µM
Cc1ncc([N+](=O)[O-])n1CCNCCCCn1ccnc1[N+](=O)[O-]	> 100 µM

Each compound was assayed on SK-MEL-28 melanoma (assay: NCI-60 cell line screen, 48 h).

SMILES	TGI
CC12CCC3c4ccc(O)cc4CCC3C1C/C(=N\O)C2O (stereo not given)	> 100 µM
O=c1[nH]c2ccc(O)cc2o1	> 100 µM
CC(=O)N(C)CCc1c[nH]c2ccccc12	> 100 µM
O=C(NNC(=O)c1ccccc1O)c1cccc(Br)c1	> 100 µM
CCOc1nnnc2nc[nH]c12	> 100 µM
CN(C)CCSc1cc(-c2ccccc2)c2ccccc2n1	17.9 µM
CN1C(=O)C2CCCC(=O)N2c2cccnc21 (stereo not given)	> 100 µM
Cc1ncc([N+](=O)[O-])n1CCNCCCCn1ccnc1[N+](=O)[O-]	> 100 µM

The compounds below were run on SK-MEL-5 melanoma (assay: NCI-60 cell line screen, 48 h).

SMILES	TGI
CC12CCC3c4ccc(O)cc4CCC3C1C/C(=N\O)C2O (stereo not given)	> 100 µM
O=c1[nH]c2ccc(O)cc2o1	> 100 µM
CC(=O)N(C)CCc1c[nH]c2ccccc12	> 100 µM
O=C(NNC(=O)c1ccccc1O)c1cccc(Br)c1	> 100 µM
CCOc1nnnc2nc[nH]c12	> 100 µM
CN(C)CCSc1cc(-c2ccccc2)c2ccccc2n1	4.7 µM
CN1C(=O)C2CCCC(=O)N2c2cccnc21 (stereo not given)	> 100 µM
Cc1ncc([N+](=O)[O-])n1CCNCCCCn1ccnc1[N+](=O)[O-]	> 100 µM

What follows are compounds tested on SK-OV-3 ovarian (assay: NCI-60 cell line screen, 48 h).

SMILES	TGI
CC12CCC3c4ccc(O)cc4CCC3C1C/C(=N\O)C2O (stereo not given)	> 100 µM
O=c1[nH]c2ccc(O)cc2o1	> 100 µM
CC(=O)N(C)CCc1c[nH]c2ccccc12	> 100 µM
O=C(NNC(=O)c1ccccc1O)c1cccc(Br)c1	> 100 µM
CCOc1nnnc2nc[nH]c12	> 100 µM
CN(C)CCSc1cc(-c2ccccc2)c2ccccc2n1	15.9 µM
Cc1ncc([N+](=O)[O-])n1CCNCCCCn1ccnc1[N+](=O)[O-]	> 100 µM

These compounds were tested on SN12C renal (assay: NCI-60 cell line screen, 48 h).

SMILES	TGI
CC12CCC3c4ccc(O)cc4CCC3C1C/C(=N\O)C2O (stereo not given)	> 100 µM
O=c1[nH]c2ccc(O)cc2o1	> 100 µM
CC(=O)N(C)CCc1c[nH]c2ccccc12	> 100 µM
O=C(NNC(=O)c1ccccc1O)c1cccc(Br)c1	> 100 µM
CCOc1nnnc2nc[nH]c12	> 100 µM
CN(C)CCSc1cc(-c2ccccc2)c2ccccc2n1	32.2 µM
CN1C(=O)C2CCCC(=O)N2c2cccnc21 (stereo not given)	> 100 µM
Cc1ncc([N+](=O)[O-])n1CCNCCCCn1ccnc1[N+](=O)[O-]	> 100 µM

The compounds below were run on SNB-19 CNS (assay: NCI-60 cell line screen, 48 h).

SMILES	TGI
CC12CCC3c4ccc(O)cc4CCC3C1C/C(=N\O)C2O (stereo not given)	> 100 µM
O=c1[nH]c2ccc(O)cc2o1	> 100 µM
CC(=O)N(C)CCc1c[nH]c2ccccc12	> 100 µM
O=C(NNC(=O)c1ccccc1O)c1cccc(Br)c1	> 100 µM
CN(C)CCSc1cc(-c2ccccc2)c2ccccc2n1	28.5 µM
CN1C(=O)C2CCCC(=O)N2c2cccnc21 (stereo not given)	> 100 µM

Each compound was assayed on SNB-75 CNS (assay: NCI-60 cell line screen, 48 h).

SMILES	TGI
CC12CCC3c4ccc(O)cc4CCC3C1C/C(=N\O)C2O (stereo not given)	> 100 µM
O=c1[nH]c2ccc(O)cc2o1	> 100 µM
CC(=O)N(C)CCc1c[nH]c2ccccc12	> 100 µM
O=C(NNC(=O)c1ccccc1O)c1cccc(Br)c1	> 100 µM
CCOc1nnnc2nc[nH]c12	> 100 µM
Cc1ncc([N+](=O)[O-])n1CCNCCCCn1ccnc1[N+](=O)[O-]	> 100 µM

What follows are compounds tested on SR leukemia (assay: NCI-60 cell line screen, 48 h).

SMILES	TGI
CC12CCC3c4ccc(O)cc4CCC3C1C/C(=N\O)C2O (stereo not given)	> 100 µM
O=c1[nH]c2ccc(O)cc2o1	> 100 µM
CC(=O)N(C)CCc1c[nH]c2ccccc12	> 100 µM
O=C(NNC(=O)c1ccccc1O)c1cccc(Br)c1	> 100 µM
CN(C)CCSc1cc(-c2ccccc2)c2ccccc2n1	> 100 µM
CN1C(=O)C2CCCC(=O)N2c2cccnc21 (stereo not given)	> 100 µM
Cc1ncc([N+](=O)[O-])n1CCNCCCCn1ccnc1[N+](=O)[O-]	> 100 µM

What follows are compounds tested on SW-620 colon (assay: NCI-60 cell line screen, 48 h).

SMILES	TGI
CC12CCC3c4ccc(O)cc4CCC3C1C/C(=N\O)C2O (stereo not given)	> 100 µM
O=c1[nH]c2ccc(O)cc2o1	> 100 µM
CC(=O)N(C)CCc1c[nH]c2ccccc12	> 100 µM
O=C(NNC(=O)c1ccccc1O)c1cccc(Br)c1	> 100 µM
CCOc1nnnc2nc[nH]c12	> 100 µM
CN(C)CCSc1cc(-c2ccccc2)c2ccccc2n1	23.2 µM
CN1C(=O)C2CCCC(=O)N2c2cccnc21 (stereo not given)	> 100 µM
Cc1ncc([N+](=O)[O-])n1CCNCCCCn1ccnc1[N+](=O)[O-]	> 100 µM

What follows are compounds tested on T-47D breast (assay: NCI-60 cell line screen, 48 h).

SMILES	TGI
CC12CCC3c4ccc(O)cc4CCC3C1C/C(=N\O)C2O (stereo not given)	> 100 µM
O=c1[nH]c2ccc(O)cc2o1	> 100 µM
CC(=O)N(C)CCc1c[nH]c2ccccc12	> 100 µM
O=C(NNC(=O)c1ccccc1O)c1cccc(Br)c1	> 100 µM
CCOc1nnnc2nc[nH]c12	> 100 µM
CN(C)CCSc1cc(-c2ccccc2)c2ccccc2n1	34.4 µM
CN1C(=O)C2CCCC(=O)N2c2cccnc21 (stereo not given)	> 100 µM
Cc1ncc([N+](=O)[O-])n1CCNCCCCn1ccnc1[N+](=O)[O-]	> 100 µM

These compounds were tested on TK-10 renal (assay: NCI-60 cell line screen, 48 h).

SMILES	TGI
CC12CCC3c4ccc(O)cc4CCC3C1C/C(=N\O)C2O (stereo not given)	> 100 µM
O=c1[nH]c2ccc(O)cc2o1	> 100 µM
CC(=O)N(C)CCc1c[nH]c2ccccc12	> 100 µM
O=C(NNC(=O)c1ccccc1O)c1cccc(Br)c1	> 100 µM
CCOc1nnnc2nc[nH]c12	> 100 µM
CN(C)CCSc1cc(-c2ccccc2)c2ccccc2n1	19.4 µM
CN1C(=O)C2CCCC(=O)N2c2cccnc21 (stereo not given)	> 100 µM
Cc1ncc([N+](=O)[O-])n1CCNCCCCn1ccnc1[N+](=O)[O-]	> 100 µM

Each compound was assayed on U251 CNS (assay: NCI-60 cell line screen, 48 h).

SMILES	TGI
CC12CCC3c4ccc(O)cc4CCC3C1C/C(=N\O)C2O (stereo not given)	> 100 µM
O=c1[nH]c2ccc(O)cc2o1	> 100 µM
CC(=O)N(C)CCc1c[nH]c2ccccc12	> 100 µM
O=C(NNC(=O)c1ccccc1O)c1cccc(Br)c1	> 100 µM
CCOc1nnnc2nc[nH]c12	> 100 µM
CN(C)CCSc1cc(-c2ccccc2)c2ccccc2n1	22.5 µM
CN1C(=O)C2CCCC(=O)N2c2cccnc21 (stereo not given)	> 100 µM
Cc1ncc([N+](=O)[O-])n1CCNCCCCn1ccnc1[N+](=O)[O-]	> 100 µM

Each compound was assayed on UACC-257 melanoma (assay: NCI-60 cell line screen, 48 h).

SMILES	TGI
CC12CCC3c4ccc(O)cc4CCC3C1C/C(=N\O)C2O (stereo not given)	> 100 µM
O=c1[nH]c2ccc(O)cc2o1	> 100 µM
CC(=O)N(C)CCc1c[nH]c2ccccc12	> 100 µM
O=C(NNC(=O)c1ccccc1O)c1cccc(Br)c1	> 100 µM
CCOc1nnnc2nc[nH]c12	> 100 µM
CN(C)CCSc1cc(-c2ccccc2)c2ccccc2n1	24.8 µM
CN1C(=O)C2CCCC(=O)N2c2cccnc21 (stereo not given)	> 100 µM
Cc1ncc([N+](=O)[O-])n1CCNCCCCn1ccnc1[N+](=O)[O-]	> 100 µM

What follows are compounds tested on UACC-62 melanoma (assay: NCI-60 cell line screen, 48 h).

SMILES	TGI
CC12CCC3c4ccc(O)cc4CCC3C1C/C(=N\O)C2O (stereo not given)	> 100 µM
O=c1[nH]c2ccc(O)cc2o1	> 100 µM
CC(=O)N(C)CCc1c[nH]c2ccccc12	> 100 µM
O=C(NNC(=O)c1ccccc1O)c1cccc(Br)c1	> 100 µM
CCOc1nnnc2nc[nH]c12	> 100 µM
CN(C)CCSc1cc(-c2ccccc2)c2ccccc2n1	9.45 µM
CN1C(=O)C2CCCC(=O)N2c2cccnc21 (stereo not given)	> 100 µM
Cc1ncc([N+](=O)[O-])n1CCNCCCCn1ccnc1[N+](=O)[O-]	> 100 µM

What follows are compounds tested on UO-31 renal (assay: NCI-60 cell line screen, 48 h).

SMILES	TGI
CC12CCC3c4ccc(O)cc4CCC3C1C/C(=N\O)C2O (stereo not given)	> 100 µM
O=c1[nH]c2ccc(O)cc2o1	> 100 µM
CC(=O)N(C)CCc1c[nH]c2ccccc12	> 100 µM
O=C(NNC(=O)c1ccccc1O)c1cccc(Br)c1	> 100 µM
CCOc1nnnc2nc[nH]c12	> 100 µM
CN(C)CCSc1cc(-c2ccccc2)c2ccccc2n1	23 µM
CN1C(=O)C2CCCC(=O)N2c2cccnc21 (stereo not given)	> 100 µM
Cc1ncc([N+](=O)[O-])n1CCNCCCCn1ccnc1[N+](=O)[O-]	> 100 µM
